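In this assay, cells in 96-well plates receive the compound at five concentrations for 48 hours. Endpoints are linearly interpolated between the surrounding concentrations. TGI: concentration producing complete growth inhibition.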
Tests used:
Assay in all cases: NCI tumour cell line growth inhibition, 48 h
[1] = test system: DLD-1 colon
[2] = test system: HCT-15 colon
[3] = test system: SF-295 CNS
[4] = test system: A498 renal
[5] = test system: MALME-3M melanoma
[6] = test system: UO-31 renal
[7] = test system: RXF-631 renal
[8] = test system: LXFL 529 NSCLC
[9] = test system: NCI-H522 lung
[10] = test system: SR leukemia
[11] = test system: OVCAR-5 ovarian
[12] = test system: EKVX NSCLC
[13] = test system: M14 melanoma
[14] = test system: HT29 colon
[15] = test system: SNB-78 CNS
[16] = test system: SNB-19 CNS
[17] = test system: SNB-75 CNS
[18] = test system: LOX IMVI melanoma
[19] = test system: COLO 205 colon
[20] = test system: KM12 colon
[21] = test system: HCC-2998 colon
[22] = test system: UACC-257 melanoma
[23] = test system: A549 NSCLC
[24] = test system: HL-60(TB) leukemia
[25] = test system: SW-620 colon
[26] = test system: OVCAR-3 ovarian
[27] = test system: DMS 273 small cell lung
[28] = test system: HCT-116 colon
[29] = test system: SK-OV-3 ovarian
[30] = test system: IGROV1 ovarian
[31] = test system: RPMI-8226 leukemia
[32] = test system: CCRF-CEM leukemia
[33] = test system: UACC-62 melanoma
[34] = test system: SF-539 CNS
[35] = test system: XF 498 CNS
[36] = test system: DMS 114 small cell lung
[37] = test system: SK-MEL-28 melanoma
[38] = test system: NCI-H23 lung
[39] = test system: MOLT-4 leukemia
[40] = test system: HOP-62 NSCLC
[41] = test system: KM20L2 colon
[42] = test system: SF-268 CNS
[43] = test system: OVCAR-8 ovarian
[44] = test system: K-562 leukemia
[45] = test system: ACHN renal
[46] = test system: 786-0 renal
[47] = test system: TK-10 renal
[48] = test system: OVCAR-4 ovarian
[49] = test system: NCI-H460 lung
[50] = test system: HOP-18 NSCLC
[51] = test system: SN12C renal
[52] = test system: HOP-92 NSCLC
[53] = test system: NCI-H226 lung
[54] = test system: U251 CNS
[55] = test system: CAKI-1 renal
[56] = test system: SK-MEL-2 melanoma
[57] = test system: SK-MEL-5 melanoma

CSc1ccc(-c2cn3ccsc3n2)c(O)c1
TGI [1]: > 100 µM | TGI [2]: > 55.8 µM | TGI [3]: > 100 µM | TGI [4]: > 100 µM | TGI [5]: > 100 µM | TGI [6]: > 100 µM | TGI [7]: > 100 µM | TGI [8]: > 82.2 µM | TGI [9]: > 100 µM | TGI [10]: 88.3 µM | TGI [11]: > 100 µM | TGI [12]: > 100 µM | TGI [13]: > 100 µM | TGI [14]: > 100 µM | TGI [15]: > 100 µM | TGI [16]: > 100 µM | TGI [17]: > 94.7 µM | TGI [18]: > 56.5 µM | TGI [19]: > 62.7 µM | TGI [20]: > 100 µM | TGI [21]: > 100 µM | TGI [22]: > 100 µM | TGI [23]: > 100 µM | TGI [24]: > 63.1 µM | TGI [25]: > 55.1 µM | TGI [26]: > 100 µM | TGI [27]: > 100 µM | TGI [28]: > 67.3 µM | TGI [29]: > 100 µM | TGI [30]: > 100 µM | TGI [31]: > 65 µM | TGI [32]: > 60.9 µM | TGI [33]: > 100 µM | TGI [34]: > 57.3 µM | TGI [35]: > 100 µM | TGI [36]: > 60.9 µM | TGI [37]: > 100 µM | TGI [38]: > 100 µM | TGI [39]: > 100 µM | TGI [40]: > 100 µM | TGI [41]: > 100 µM | TGI [42]: > 100 µM | TGI [43]: > 100 µM | TGI [44]: > 60.2 µM | TGI [45]: > 100 µM | TGI [46]: 43.3 µM | TGI [47]: > 100 µM | TGI [48]: 98.7 µM | TGI [49]: > 87.4 µM | TGI [50]: > 100 µM | TGI [51]: > 100 µM | TGI [52]: > 100 µM | TGI [53]: > 100 µM | TGI [54]: > 100 µM | TGI [55]: > 100 µM | TGI [56]: > 100 µM | TGI [57]: > 100 µM

— PubChem BioAssay (NCI)
